The source of these data is US8791143B2, “Anthranilic diamide derivatives having cyclic side-chains” (priority 2010, dated 2014).

Where two headings read alike, the source gives them in different places.

A short description of series [1]: log P by HPLC on reversed-phase columns (EEC Directive 79/831 Annex V.A8). The format is physicochemical.
Series [2] has as its system green peach aphid (Myzus persicae). The series can be described thus: Myzus test (MYZUPE spray treatment). The format is in vivo. Particulars: Myzus persicae, 144 h; for inhibition at 20 g/ha / inhibition at 100 g/ha: 6 d, comparison with prior art.
The subject of series [3] is caterpillars of the armyworm (Spodoptera frugiperda). The series is described as follows: Spodoptera frugiperda test (SPODFR spray treatment). Particulars: for pest or weed control at 100 g/ha: read-out: activity in % (caterpillars killed). The format is in vivo.
Series [4] has as its system larvae of the mustard beetle (Phaedon cochleariae). The series can be described thus: Phaedon test (PHAECO spray treatment). Particulars: for inhibition at 20 g/ha / pest or weed control at 100 g/ha: Phaedon cochleariae, 168 h; for inhibition at 20 g/ha: read-out: % Activity PHAECO; for pest or weed control at 100 g/ha: read-out: activity in % (beetle larvae killed).
Where [5] appears, read: read-out: activity in % (aphids killed).
The mark [6] stands for this setting: application rate 100 g/ha, after 7 days.
Where [7] appears, read: Spodoptera frugiperda, 168 h, 7 d, comparison with prior art.
Setting [8] is: reversed-phase C18 HPLC column, pH 2.7, HPLC reversed-phase C18, acidic range pH 2.7 (HCOOH), only or first value of the cell, read-out: log P.
[9] abbreviates: Spodoptera frugiperda, 168 h, application rate 100 g/ha, after 7 days.

`Cc1cc(C#N)cc(C(=O)NC2COC2)c1NC(=O)c1cc(Cn2nnc(C(F)(F)F)n2)nn1-c1ncccc1Cl` [Example 1]: the chromatographic logP in series [1] (pH 2.7, log P) was 2.49. Also, the pest or weed control at 100 g/ha in series [2] (setting [5]) was 90%. For the same molecule, the inhibition at 20 g/ha in series [2] was 100%. Also, the “activity in % (caterpillars killed)” value in series [3] (setting [6]) is 100%. Further, the “activity in % (beetle larvae killed)” value in series [4] (setting [6]) is reported as 100%.
For the molecule `Cc1cc(Cl)cc(C(=O)NC2COC2)c1NC(=O)c1cc(Cn2nnc(C(F)(F)F)n2)nn1-c1ncccc1Cl` [Example 2], the chromatographic logP in series [1] (pH 2.7, log P) turned out to be 2.8. Further, the pest or weed control at 100 g/ha in series [2] (setting [5]) turned out to be 100%; in series [3] (Spodoptera frugiperda, 168 h), 100%; in series [4], 100%. In series [2], this molecule returned an inhibition at 100 g/ha of 100%. Further, the inhibition at 20 g/ha in series [3] (setting [7]) and in series [4] was 100% each time.
Turning to `Cc1cc(Br)cc(C(=O)NC2COC2)c1NC(=O)c1cc(Cn2nnc(C(F)(F)F)n2)nn1-c1ncccc1Cl` [Example 3], the chromatographic logP in series [1] (pH 2.7, log P) came to 2.87. Moreover, the pest or weed control at 100 g/ha in series [2] (setting [5]) came out at 100%; in series [3] (Spodoptera frugiperda, 168 h), 100%; in series [4], 100%.
Turning to `Cc1cc(F)cc(C(=O)NC2COC2)c1NC(=O)c1cc(Cn2nnc(C(F)(F)F)n2)nn1-c1ncccc1Cl` [Example 4], the chromatographic logP in series [1] (pH 2.7, log P) is 2.53. Further, the pest or weed control at 100 g/ha in series [2] (setting [5]) was determined as 100%; in series [3] (Spodoptera frugiperda, 168 h) it was 100%; in series [4] it was 100%.
In series [1] (pH 2.7, log P), `Cc1cc(I)cc(C(=O)NC2COC2)c1NC(=O)c1cc(Cn2nnc(C(F)(F)F)n2)nn1-c1ncccc1Cl` [Example 6] displayed a chromatographic logP of 3. The pest or weed control at 100 g/ha was 80% in series [2] (setting [5]); 100% in series [3] (Spodoptera frugiperda, 168 h); 100% in series [4].
In series [1] (pH 2.7, log P), `Cc1cc(C)c(NC(=O)c2cc(Cn3nnc(C(F)(F)F)n3)nn2-c2ncccc2Cl)c(C(=O)NC2COC2)c1` [Example 7] registered a chromatographic logP of 2.67. Also, the pest or weed control at 100 g/ha was determined as 90% in series [2] (setting [5]); 100% in series [3] (Spodoptera frugiperda, 168 h); 100% in series [4].
Molecule `O=C(NC1COC1)c1cc(Cl)cc(Cl)c1NC(=O)c1cc(Cn2nnc(C(F)(F)C(F)(F)F)n2)nn1-c1ncccc1Cl` [Example 10] returned a chromatographic logP in series [1] (pH 2.7, log P) of 3.18. Further, the pest or weed control at 500 g/ha in series [2] (setting [5]) was determined as 100%. In addition, the pest or weed control at 100 g/ha is 100% in series [3] (Spodoptera frugiperda, 168 h) and 100% in series [4].
In the case of `Cc1cc(C#N)cc(C(=O)NC2COC2)c1NC(=O)c1cc(Cn2nnc(C(F)(F)C(F)(F)F)n2)nn1-c1ncccc1Cl` [Example 14], the chromatographic logP in series [1] (pH 2.7, log P) stood at 2.87. Moreover, the pest or weed control at 100 g/ha in series [2] (setting [5]) is 90%; in series [3] (Spodoptera frugiperda, 168 h) it was 100%; in series [4], 100%.
`Cc1cc(C#N)cc(C(=O)NC2CSC2)c1NC(=O)c1cc(Cn2nnc(C(F)(F)F)n2)nn1-c1ncccc1Cl` [Example 15] returned a chromatographic logP in series [1] (pH 2.7, log P) of 3.06. The pest or weed control at 100 g/ha in series [2] (setting [5]) is 100%; in series [3] (Spodoptera frugiperda, 168 h) it was 100%; in series [4] it was 100%.
On to `Cc1cc(C#N)cc(C(=O)NC2CCSCC2)c1NC(=O)c1cc(Cn2nnc(C(F)(F)F)n2)nn1-c1ccccc1Cl` [Example 58], for which the chromatographic logP in series [1] (setting [8]) is 3.65. The pest or weed control at 100 g/ha in series [2] (application rate 100 g/ha, after 6 days, read-out: activity in % (aphids killed)) came out at 100%; in series [4] it was 100%.
Regarding `O=C(NCc1ccccc1OC(F)(F)F)c1cc(Cl)cc(F)c1NC(=O)c1cc(Cn2nnc(C(F)(F)F)n2)nn1-c1ncccc1Cl` [Example 209], the chromatographic logP in series [1] (setting [8]) was 4.12. Besides, the pest or weed control at 100 g/ha in series [3] (setting [9]) and in series [4] was 100% each time.
Take `O=C(NCc1cccc(OC(F)(F)F)c1)c1cc(Cl)cc(F)c1NC(=O)c1cc(Cn2nnc(C(F)(F)F)n2)nn1-c1ncccc1Cl` [Example 210]: the chromatographic logP in series [1] (setting [8]) was found to be 4.22. In addition, the pest or weed control at 100 g/ha in series [3] (setting [9]) and in series [4] was 100% throughout.
As to `O=C(NCc1ccc(OC(F)(F)F)cc1)c1cc(Cl)cc(F)c1NC(=O)c1cc(Cn2nnc(C(F)(F)F)n2)nn1-c1ncccc1Cl` [Example 211], the chromatographic logP in series [1] (setting [8]) was 4.21. Besides, the pest or weed control at 100 g/ha in series [3] (setting [9]) and in series [4] was 100% in each case.
For the molecule `Cc1cc(C#N)cc(C(=O)NCc2cccc(OC(F)F)c2)c1NC(=O)c1cc(Cn2nnc(C(F)(F)F)n2)nn1-c1ccccc1Cl` [Example 212], the chromatographic logP in series [1] (setting [8]) is 3.67. Further, the pest or weed control at 100 g/ha in series [3] (setting [9]) and in series [4] was 100% in each case.
Consider `Cc1cc(C#N)cc(C(=O)NCc2cccc(OC(F)(F)F)c2)c1NC(=O)c1cc(Cn2nnc(C(F)(F)F)n2)nn1-c1ccccc1Cl` [Example 213], for which, in series [1] (setting [8]), the chromatographic logP was determined as 4.18. In addition, the pest or weed control at 100 g/ha in series [3] (setting [9]) and in series [4] was 100% in each case.
Take `Cc1cc(C#N)cc(C(=O)NCc2cccc(OC(F)(F)F)c2)c1NC(=O)c1cc(Cn2nnc(C(F)(F)F)n2)nn1-c1c(Cl)cccc1Cl` [Example 214]: the chromatographic logP in series [1] (setting [8]) amounted to 4.23. Further, the pest or weed control at 100 g/ha in series [3] (setting [9]) and in series [4] was 100% in each case.
For `Cc1cc(C#N)cc(C(=O)NCc2cccc(OC(F)F)c2)c1NC(=O)c1cc(Cn2nnc(C(F)(F)F)n2)nn1-c1c(Cl)cccc1Cl` [Example 215], the chromatographic logP in series [1] (setting [8]) worked out at 3.78. Moreover, the pest or weed control at 100 g/ha in series [3] (setting [9]) and in series [4] was 100% in each case.
For the molecule `Cc1cc(C#N)cc(C(=O)NCc2ccc(OC(F)F)cc2)c1NC(=O)c1cc(Cn2nnc(C(F)(F)F)n2)nn1-c1c(Cl)cccc1Cl` [Example 216], the chromatographic logP in series [1] (setting [8]) worked out at 4.1. Further, the pest or weed control at 100 g/ha in series [3] (setting [9]) and in series [4] was 100% throughout.
For `Cc1cc(C#N)cc(C(=O)NCc2ccccc2OC(F)(F)F)c1NC(=O)c1cc(Cn2nnc(C(F)(F)F)n2)nn1-c1ccccc1Cl` [Example 217], the chromatographic logP in series [1] (setting [8]) was found to be 4.28. Besides, the pest or weed control at 100 g/ha in series [3] (setting [9]) and in series [4] was 100% throughout.
In turn, `Cc1cccc(CNC(=O)c2cc(Cl)cc(C)c2NC(=O)c2cc(Cn3nnc(C(F)(F)F)n3)nn2-c2ncccc2Cl)n1` [Example 225] yielded a chromatographic logP in series [1] (pH 2.7, log P) of 2.24. Moreover, the pest or weed control at 100 g/ha was 100% in series [3] (Spodoptera frugiperda, 168 h) and 100% in series [4].
In the case of `Cc1cc(Cl)cc(C(=O)NCc2ccc(C(F)(F)F)cn2)c1NC(=O)c1cc(Cn2nnc(C(F)(F)F)n2)nn1-c1ncccc1Cl` [Example 226], the chromatographic logP in series [1] (setting [8]) turned out to be 3.7. Also, the pest or weed control at 100 g/ha in series [3] (setting [9]) and in series [4] was 100% throughout.
For the molecule `CCc1cccc(CNC(=O)c2cc(Cl)cc(C)c2NC(=O)c2cc(Cn3nnc(C(F)(F)F)n3)nn2-c2ncccc2Cl)n1` [Example 228], the chromatographic logP in series [1] (pH 2.7, log P) came out at 2.22. In addition, the pest or weed control at 100 g/ha in series [3] (Spodoptera frugiperda, 168 h) stood at 100%; in series [4], 100%.
Turning to `Cc1cc(Cl)cc(C(=O)NCc2ncc(C(F)(F)F)cc2Cl)c1NC(=O)c1cc(Cn2nnc(C(F)(F)F)n2)nn1-c1ncccc1Cl` [Example 230], the chromatographic logP in series [1] (setting [8]) was 4.23. Also, the pest or weed control at 100 g/ha in series [3] (setting [9]) and in series [4] was 100% in each case.
In turn, `Cc1cc(Cl)cc(C(=O)NCc2cc(Cl)ccn2)c1NC(=O)c1cc(Cn2nnc(C(F)(F)F)n2)nn1-c1ncccc1Cl` [Example 232] had a chromatographic logP in series [1] (pH 2.7, log P) of 3.45. In addition, the pest or weed control at 100 g/ha in series [3] (Spodoptera frugiperda, 168 h) was determined as 100%; in series [4], 100%.
For the molecule `Cc1cc(Cl)cc(C(=O)NCc2cccc(-c3ccccc3)n2)c1NC(=O)c1cc(Cn2nnc(C(F)(F)F)n2)nn1-c1ncccc1Cl` [Example 233], the chromatographic logP in series [1] (setting [8]) is 4.27. The pest or weed control at 100 g/ha in series [3] (setting [9]) and in series [4] was 100% each time.
For `Cc1cc(Cl)cc(C(=O)NC(C)c2ccc(C(F)(F)F)cn2)c1NC(=O)c1cc(Cn2nnc(C(F)(F)F)n2)nn1-c1ncccc1Cl` (centres unmarked) [Example 234], the chromatographic logP in series [1] (setting [8]) came out at 4.04. Further, the pest or weed control at 100 g/ha in series [3] (setting [9]) and in series [4] was 100% in each case.
Molecule `Cc1cc(Cl)cc(C(=O)NCc2ccc(Cl)nc2)c1NC(=O)c1cc(Cn2nnc(C(F)(F)F)n2)nn1-c1ncccc1Cl` [Example 235] came in with a chromatographic logP in series [1] (pH 2.7, log P) of 3.42. For the same molecule, the pest or weed control at 100 g/ha came to 100% in series [3] (Spodoptera frugiperda, 168 h) and 100% in series [4].
Molecule `Cc1cc(C#N)cc(C(=O)NC2CCC2)c1NC(=O)c1cc(Cn2nnc(C(F)(F)F)n2)nn1-c1ncccc1Cl` [No. 1 known WO2007/144100, reference compound] came in with an inhibition at 20 g/ha in series [2] of 80%.
Consider `Cc1cc(C#N)cc(C(=O)NC2CCCC2)c1NC(=O)c1cc(Cn2nnc(C(F)(F)F)n2)nn1-c1ncccc1Cl` [No. 2 known WO2007/144100, reference compound], for which the inhibition at 100 g/ha in series [2] amounted to 70%.
On to `Cc1cc(C#N)cc(C(=O)NC2CCCC2)c1NC(=O)c1cc(Cn2nnc(C(F)(F)F)n2)nn1-c1ccccc1Cl` [No. 3 known WO2007/144100, reference compound], for which the inhibition at 100 g/ha in series [2] was found to be 0%; in series [3] (Spodoptera frugiperda, 168 h, 100 g/ha, 7 d, comparison with prior art) it was 83%.
In series [2], `Cc1cc(Cl)cc(C(=O)NC2CCC2)c1NC(=O)c1cc(Cn2nnc(C(F)(F)F)n2)nn1-c1ncccc1Cl` [No. 4 known WO2007/144100, reference compound] showed an inhibition at 100 g/ha of 0%. Besides, the inhibition at 20 g/ha in series [3] (setting [7]) turned out to be 83%; in series [4] it was 33%.
